Results reported in US20040166079A1, “N-Lauroyl amino acid composition for slimming the human body” (priority 2003, published 2004).

Columns and labels:
human recombinant MMP-9 = target: T1, human recombinant MMP-9 (Homo sapiens, UniProt P14780); assay: Measurement of the activity of metalloproteinase MMP-9 (DQ-gelatin fluorescence); type: biochemical; conditions: incubation concentration 0.0018 % DE; relative to the control
T1 construct: purchased CALBIOCHEM PF024
Method: (§1) The objective of this test is to evaluate the inhibitory capacity of a product on the enzymatic activity of MMP-2 and MMP-9. This test is based on an enzymatic reaction between purified MMP-2 or MMP-9 and a specific substrate containing a chromophore. The degradation of the chromogenic substrate by the enzyme leads to the production of fluorescence monitored by fluorimetry.
(§2) (i)—A human recombinant MMP-9 (CALBIOCHEM, PF024) is incubated, at 0.05 μg/ml, in the presence of the product and the chromogenic substrate, DQ-gelatin conjugated with fluorescein (MOLECULAR PROBE, D12054) at 10 μg/ml. The reaction mixture is incubated overnight at room temperature, protected from light. The quantity of DQ-gelatin degraded is measured by fluorescence (Ex: 355 nm; Em: 460 nm).
(§3) The reactivity of the enzymatic system is systematically monitored for the measurement of the effect of a metalloproteinase inhibitor, 1,10-phenanthroline. The results are presented in the following table, as a percentage inhibition of the enzymatic activity of MMP-2 and MMP-9 relative to the control.

human recombinant MMP-2 = target: T2, human recombinant MMP-2 (Homo sapiens, UniProt P08253); assay: Measurement of the activity of metalloproteinase MMP-2 (DQ-gelatin fluorescence); type: biochemical; conditions: incubation concentration 0.0018 % DE; relative to the control
T2 construct: purchased CALBIOCHEM PF023
T2 sequence (P08253 110-660): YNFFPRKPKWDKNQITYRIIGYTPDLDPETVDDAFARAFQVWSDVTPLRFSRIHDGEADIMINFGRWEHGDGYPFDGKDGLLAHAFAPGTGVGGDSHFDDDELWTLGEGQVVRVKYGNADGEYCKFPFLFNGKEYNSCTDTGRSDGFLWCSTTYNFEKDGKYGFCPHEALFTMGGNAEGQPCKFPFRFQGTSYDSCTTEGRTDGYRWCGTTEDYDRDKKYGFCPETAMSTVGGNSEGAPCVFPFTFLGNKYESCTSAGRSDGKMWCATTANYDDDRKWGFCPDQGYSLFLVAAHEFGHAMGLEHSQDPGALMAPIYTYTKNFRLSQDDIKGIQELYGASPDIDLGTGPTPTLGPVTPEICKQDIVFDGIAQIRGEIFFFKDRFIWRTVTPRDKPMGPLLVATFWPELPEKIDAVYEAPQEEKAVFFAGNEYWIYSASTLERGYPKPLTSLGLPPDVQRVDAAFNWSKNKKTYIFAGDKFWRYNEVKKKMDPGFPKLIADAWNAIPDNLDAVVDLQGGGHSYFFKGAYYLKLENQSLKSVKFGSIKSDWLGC
Method: as §1
as §2, with “(ii)—A” for “(i)—A”, “MMP-2” for “MMP-9”, “PF023)” for “PF024)”, “0.1” for “0.05”
as §3

α2-adrenergic receptors = target: T3, α2-adrenergic receptors (Homo sapiens, UniProt P08913); assay: Involvement of α2-adrenergic receptors in lipolytic activity: fatty acid assay in human adipocytes with brimonidine; type: cell-based
T3 construct: adrenergic receptors found at the surface of the adipocytes; endogenous in cells; host or cells: human adipocytes from subcutaneous abdominal adipose tissue of women
T3 sequence (P08913 1-465): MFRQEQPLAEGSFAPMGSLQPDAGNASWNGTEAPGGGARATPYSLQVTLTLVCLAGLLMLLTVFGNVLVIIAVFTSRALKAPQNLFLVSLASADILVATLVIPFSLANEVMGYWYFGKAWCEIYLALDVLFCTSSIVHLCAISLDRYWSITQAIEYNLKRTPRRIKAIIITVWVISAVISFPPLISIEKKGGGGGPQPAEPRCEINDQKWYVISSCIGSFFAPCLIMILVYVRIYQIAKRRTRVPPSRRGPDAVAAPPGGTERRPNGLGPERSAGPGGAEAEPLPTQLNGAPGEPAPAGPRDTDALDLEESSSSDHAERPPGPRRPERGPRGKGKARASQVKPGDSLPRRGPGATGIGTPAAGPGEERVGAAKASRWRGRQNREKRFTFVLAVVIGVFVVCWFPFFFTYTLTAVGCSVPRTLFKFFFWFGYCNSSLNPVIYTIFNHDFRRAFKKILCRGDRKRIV
Source text: It involves determining, in an “in vitro” model of isolated human adipocytes, the involvement of the α2- and/or β-adrenergic receptors on the lipolytic activity of the test product. Lipolysis is indeed under the control of the adrenergic receptors found at the surface of the adipocytes. Two types of receptors coexist:
A lipolytic product can call into play these receptors either by stimulating the β-adrenergic receptors (agonist), or by inhibiting the α2-adrenergic receptors (antagonist). The method described consists in incubating the product in the presence of human adipocytes in suspension, followed by the measurement of the lipolytic activity by assaying fatty acids. The adipocytes are incubated in the presence of pharmacological agents, α2-adrenergic agonists or β-adrenergic antagonists, known to inhibit lipolysis. The trial consists in studying the effect of the product on the inhibition of lipolysis induced by these pharmacological agents.
The test is carried out using human adipocytes isolated and prepared as a cellular suspension. The adipocytes are isolated from the subcutaneous abdominal adipose tissue recovered during plastic surgery operations (abdominal plastic surgery operations) performed on women. The cells are isolated from fresh tissue. To isolate the cells, the adipose tissue is isolated and dissociated by the action of a collagenase (SIGMA™, 1 mg/ml, 30 minutes at 37° C., gentle stirring). Collagenase digests the connective tissue present in the adipose tissue. […]
The product is incubated with the cells in suspension for two hours at 37° C. (250 μl of product+250 μl of adipocyte suspension). in the presence of an α2-adrenergic agonist: brimonidine at 10^−9 M (concentration previously determined to inhibit basal lipolysis by about 50%), and The supernatant media are collected. […]

[1] = target: T4, hyaluronidase (SIGMA), purified from bovine testicles (Bos taurus, UniProt Q2YDK3); assay: Measurement of the activity of hyaluronidase (purified enzyme); type: biochemical; conditions: hyaluronidase test, 60 minutes at 37° C.
T4 construct: purified from bovine testicles; purchased SIGMA; host or cells: bovine testicles
T4 sequence (Q2YDK3 36-553): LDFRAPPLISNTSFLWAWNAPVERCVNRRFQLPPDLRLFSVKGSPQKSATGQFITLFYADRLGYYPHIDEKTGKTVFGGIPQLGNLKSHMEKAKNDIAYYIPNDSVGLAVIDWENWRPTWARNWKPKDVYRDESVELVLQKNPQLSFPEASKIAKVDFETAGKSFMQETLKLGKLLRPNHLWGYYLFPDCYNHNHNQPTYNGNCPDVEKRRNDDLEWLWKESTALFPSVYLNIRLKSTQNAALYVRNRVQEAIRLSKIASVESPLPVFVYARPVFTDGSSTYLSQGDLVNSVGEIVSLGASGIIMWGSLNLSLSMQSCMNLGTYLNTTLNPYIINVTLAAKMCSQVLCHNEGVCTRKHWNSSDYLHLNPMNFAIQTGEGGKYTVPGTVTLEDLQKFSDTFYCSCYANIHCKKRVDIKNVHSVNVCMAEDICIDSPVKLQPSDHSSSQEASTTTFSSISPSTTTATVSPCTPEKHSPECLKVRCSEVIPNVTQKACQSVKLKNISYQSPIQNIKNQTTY
Method: The objective of this test is to measure the activity of hyaluronidase. This enzyme, which is naturally found in the skin, degrades hyaluronic acid. The study is carried out in vitro on the purified enzyme.
The hyaluronidase (SIGMA), purified from bovine testicles, is incubated at 0.01 U/ml in the presence of hyaluronic acid at 0.02 mg/ml, with or without test product. The incubation is carried out for 60 minutes at 37° C.
Evaluation of the effects: After the incubation, the hyaluronic acid not degraded by the enzyme is precipitated by a 24 mM sodium acetate/79. mM acetic acid mixture (10 minutes, room temperature). The precipitate is measured by spectrophotometry at 590 nm.
The effect of the test products is compared to that observed in the presence of dipotassium glycyrrhizinate, a reference hyaluronidase inhibitor.

β-adrenergic receptors = assay: Involvement of β-adrenergic receptors in lipolytic activity: fatty acid assay in human adipocytes with propranolol; type: cell-based
Method: The supernatant media are collected. The nonesterified fatty acids are assayed by spectrophotometry with the aid of a commercial kit in these supernatant media (NEFA C kit, WAKO). The assay is performed against a fatty acid calibration series.
for the inhibition induced by the β-adrenergic antagonist, by the use of a β-adrenergic agonist, isoprenaline.

human adipocytes = assay: Assay of the free fatty acids (lipolytic activity) in isolated human adipocytes in suspension; type: cell-based; conditions: for Free fatty acid concentration: 2 h at 37° C., mean of five assays
Source text: Hydrolysis of the triglycerides to nonesterified fatty acids and glycerol is called lipolysis. Triglycerides are stored in the adipocytes and constitute the fat reserve. For this reserve to diminish, which is the desired aim when slimming products are used, the triglycerides should be hydrolysed in the form of fatty acids, which in their case can be removed from the cell. Hydrolysis of the triglycerides calls into play a hormone-dependent lipase which must be phosphorylated in order to be active. The phosphorylation step uses a kinase and cAMP. An increase in the cAMP content of the adipocytes is necessary for promoting the activity of the lipase and therefore the lipolysis. The method described consists in incubating the products in the presence of human adipocytes in suspension, followed by […].
The test is carried out using human adipocytes isolated and prepared as a cellular suspension. The adipocytes are isolated from the subcutaneous abdominal adipose tissue recovered during plastic surgery operations (abdominal plastic surgery operations) performed on women. The cells are isolated from fresh tissue. The adipose tissue is isolated and dissociated by the action of a collagenase (SIGMA™, 1 mg/ml, 30 minutes at 37° C., gentle stirring). Collagenase digests the connective tissue present in the adipose tissue. After digestion, the cells are filtered and washed in an appropriate culture medium containing MEM medium free of phenol red, free of glutamine (SIGMA)+2.2 mg/ml of sodium bicarbonate (GIBCO)+50 IU of penicillin (BIOWHITTAKER™)+50 μg/ml of streptomycin (BIOWHITTAKER™)+1% (v/v) of L-glutamine (BIOWHITTAKER™)+0.5% of lipid-free serum albumin (SIGMA™). The adipocyte suspension is used immediately after its preparation.
The test products are diluted in the adipocyte culture medium. They are incubated with the cells in suspension for two hours at 37° C. (250 μl of product+250 μl of adipocyte suspension).
After the incubation, the cell lysis is checked visually by the presence of a lipid layer at the surface of the cellular suspension. The supernatant media are collected. The free fatty acids are assayed by spectrophotometry using a commercial kit (NEFA™ C kit, WAKO), with reference to a fatty acid calibration series. The lypolytic activity of the products is evaluated relative to a control group incubated in the presence of adipocytes and in the absence of product. […] Five assays are performed for each of the test products which are as follows:
This assay is repeated by carrying out new assays at different concentrations.

[2] = incubation concentration 0.0001 wt % DE
[3] = incubation concentration 0.0010 wt % DE

T1 sequence (P14780 107-707 limits assumed): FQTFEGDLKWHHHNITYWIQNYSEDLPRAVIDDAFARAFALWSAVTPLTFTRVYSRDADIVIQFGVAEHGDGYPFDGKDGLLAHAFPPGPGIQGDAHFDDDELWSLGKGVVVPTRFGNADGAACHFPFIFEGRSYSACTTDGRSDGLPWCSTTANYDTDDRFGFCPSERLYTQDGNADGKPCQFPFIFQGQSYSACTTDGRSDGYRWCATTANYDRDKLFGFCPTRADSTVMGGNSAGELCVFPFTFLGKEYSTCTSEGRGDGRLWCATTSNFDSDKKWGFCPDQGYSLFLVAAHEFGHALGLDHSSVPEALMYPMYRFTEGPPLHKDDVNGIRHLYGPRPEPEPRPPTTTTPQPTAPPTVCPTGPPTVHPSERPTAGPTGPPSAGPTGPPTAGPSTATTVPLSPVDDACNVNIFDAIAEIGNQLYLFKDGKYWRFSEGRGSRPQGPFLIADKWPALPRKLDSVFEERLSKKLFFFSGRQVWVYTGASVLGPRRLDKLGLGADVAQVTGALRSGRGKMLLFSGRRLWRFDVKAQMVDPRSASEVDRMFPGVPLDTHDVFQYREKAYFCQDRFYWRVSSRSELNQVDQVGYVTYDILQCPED

c1cnc2c(c1)ccc1cccnc12 [1,10-Phenanthroline, 1,10-phenanthroline]
MMP-9 inhibiting effect (human recombinant MMP-9): 75% | MMP-2 inhibiting effect (human recombinant MMP-2): 25%

Brc1c(NC2=NCCN2)ccc2nccnc12 [Brimonidine, brimonidine]
Assay of the nonesterified fatty acids in the supernatant (% relative to the control) (α2-adrenergic receptors; 10^−9 M, alone): 0% | inhibition at 0.001 µM (α2-adrenergic receptors; read-out: inhibition of basal lipolysis): ~50%

CC1(C)[C@@H](O[C@H]2O[C@H](C(=O)[O-])[C@@H](O)[C@H](O)[C@H]2O[C@@H]2O[C@H](C(=O)[O-])[C@@H](O)[C@H](O)[C@H]2O)CC[C@]2(C)[C@H]3C(=O)C=C4[C@@H]5C[C@@](C)(C(=O)O)CC[C@]5(C)CC[C@@]4(C)[C@]3(C)CC[C@@H]12.[K+].[K+] [Di K glycyrrhizinate, dipotassium glycyrrhizinate]
Percentage inhibition of hyaluronidase activity ([1]; incubation concentration 0.001 % DE): 20% | Percentage inhibition of hyaluronidase activity ([1]; incubation concentration 0.1 % DE): 45%

CC(C)NCC(O)c1ccc(O)c(O)c1 (centres unmarked) [Isoprenaline, isoprenaline]
Assay of the nonesterified fatty acids in the supernatant (% relative to the control) (β-adrenergic receptors; 10^−5 M + propanolol 10^−7 M): 170%

CCCCCCCCCCCC(=O)N(C)CC(=O)O [N-Lauroylsarcosine]
Free fatty acid concentration (human adipocytes; [2]): 26.32 ± 0.68 µM | Lipolytic activity (compared with the control = 100) (human adipocytes; [2]): 228 | Free fatty acid concentration (human adipocytes; [3]): 28.82 ± 6.11 µM | Lipolytic activity (compared with the control = 100) (human adipocytes; [3]): 250

Cc1ccc(N(CC2=NCCN2)c2cccc(O)c2)cc1 [Phentolamine, phentolamine]
Assay of the nonesterified fatty acids in the supernatant (% relative to the control) (α2-adrenergic receptors; 10^−7 M + brimonidine 10^−9 M): 79%

CC(C)NCC(O)COc1cccc2ccccc12 (centres unmarked) [Propanolol, propranolol]
Assay of the nonesterified fatty acids in the supernatant (% relative to the control) (β-adrenergic receptors; 10^−7 M, alone): 86% | inhibition of basal lipolysis (β-adrenergic receptors; at 10^−7 M, concentration previously determined): about 50%
